Source: patent US20120238511A1, “2-DEOXY-D-GLUCOSE FORMULATIONS FOR PREVENTION OR TREATMENT OF NEURODEGENERATIVE DISEASES” (University of Southern California, priority 2011, published 2012)

System: triple transgenic AD (3×Tg-AD) mouse model
Assay: 2-DG diet in triple transgenic Alzheimer's mouse model
Type: in vivo
Conditions: low-density gene array (LDA array) analyses
Experimental: It has been shown that mitochondrial bioenergetic deficits precede Alzheimer's disease (AD) pathology in the triple transgenic AD (3×Tg-AD) mouse model. […] In the current study, the impact of 2-deoxy-D-glucose (2-DG), a compound known to regulate glucose metabolism and induce ketogenesis, on both brain bioenergetics and AD pathology was evaluated.
3×Tg-AD female at 6 month were fed with either a regular diet (AIN-93G) or diet containing 0.04% 2-DG for 7 weeks.

OCC1OC(O)CC(O)C1O [2-DG, 2-deoxy-D-glucose]
Tau phosphorylation: reduced | amyloid production: decreased
